# Assay results published in patent publication US20130079345A1, “[…] ACTIVE DISUBSTITUTED TRIAZINE DERIVATIVES” (BAYER INTELLECTUAL PROPERTY GMBH, priority 2010, published 2013).
# Structures can show the parent of a compound that is named as a salt.
# Tests used:
# CDK2/CyclinA [1] = target: T1, CDK2/CyclinA (Homo sapiens, UniProt P24941); assay: Lance Ultra KinaSelect Assay, CDK2; type: biochemical; conditions: ATP 3 μM, read-out: Inhibition (IC50) CDK2
# T1 construct: purchased Proqinase
# Experimental: (§1) This protocol describes how the Lance Ultra KinaSelect Assay was performed to determine half maximal inhibitory concentration (IC50) of compounds of general formula (I) and CDK/Cyclin complexes. The principle behind this enzymatic assay is based upon the phosphorylation of the ULight-Peptide Substrat. It is detected by using a specific EU-labeled anti-phospho peptide antibody. The binding of the Eu-labeled anti-phospho peptide antibody to the phosphorylated U Light labeled peptide gives rise to a FRET-signal. Binding of an inhibitor to the kinase prevents phosphorylation of the ULight-MBP Substrat, resulting in a loss of FRET.
# (§2) The compounds of general formula (I) summarized in Table 5 were diluted from a 10 mM DMSO stock solution 1:10 in a total volume of 15 μL DMSO. This compound predilution was then serial diluted 1:3 over 8 steps in DMSO and briefly spun down. Each compound solution was now diluted 1:20 in Enzymatic Buffer (HEPES: 50 mM, pH: 7.5; MgCl2: 10 mM; EGTA: 1 mM; DTT: 2 mM; Tween-20: 0.01%), mixed thoroughly and spun down. For every sample, 2 μL of the diluted compound were mixed with 6 μL CDK/Cyclin/Substrat solution and […] in a well of a small volume 384 well plate (Corning Incorporated, Corning, N.Y., USA; order no. 3673). […] For positive controls, in each well 2 μL of DMSO solution (1% final DMSO assay concentration) was mixed with 6 μL CDK/Cyclin/Substrat (appropriate final concentration see Table 3) and 2 μL Tracer ATP solution (appropriate final concentration see Table 3). Positive and negative controls were calculated from at least 8 different sample wells. The 384 well plates were mixed in a Teleshaker plate mixer (Beckman Coulter, Brea, Calif., USA) at 2000 rpm for 40 sec, and incubated for 1 h at room temperature. Before reading, 10 μL detection buffer (Lance Detection Buffer 1×; EDTA: […]; Eu-Anti-P-MBP: see Table 3) was added. The FRET signal was measured at 340 nm excitation, 665 nm and 615 nm emission (for the kinase tracer and LanthaScreen Eu-AB, respectively) with an Envision spectrophotometer (Perkin Elmer, Waltham, Mass., USA) with 50 μs delay and 300 μs integration time. IC50 values were determined from the sigmoidal dose response curves with the software Quattro Workflow (Quattro GmbH, Munich, Germany).
# CDK9 = target: T2, CDK9 (Homo sapiens, UniProt P50750); assay: Lance Ultra KinaSelect Assay, CDK9; type: biochemical; conditions: read-out: Inhibition (IC50) CDK9
# T2 construct: purchased Invitrogen
# T2 sequence (P50750 whole entry): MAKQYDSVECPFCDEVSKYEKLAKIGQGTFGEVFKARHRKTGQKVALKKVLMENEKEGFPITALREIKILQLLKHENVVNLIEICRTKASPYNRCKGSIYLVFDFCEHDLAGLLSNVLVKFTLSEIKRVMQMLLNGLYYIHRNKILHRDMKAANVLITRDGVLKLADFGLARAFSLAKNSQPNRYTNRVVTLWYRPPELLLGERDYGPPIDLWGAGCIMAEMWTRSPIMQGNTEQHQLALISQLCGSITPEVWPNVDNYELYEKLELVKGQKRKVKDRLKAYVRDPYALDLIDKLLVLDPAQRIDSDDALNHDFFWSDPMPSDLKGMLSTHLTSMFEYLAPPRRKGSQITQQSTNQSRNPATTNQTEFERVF
# Experimental: as §1, §2
# CDK4/CyclinD1 = target: T3, CDK4/CyclinD1 (Homo sapiens, UniProt P11802); assay: Lance Ultra KinaSelect Assay, CDK4; type: biochemical; conditions: ATP 90 μM, read-out: Inhibition (IC50) CDK4
# T3 construct: purchased Invitrogen
# T3 sequence (P11802 whole entry): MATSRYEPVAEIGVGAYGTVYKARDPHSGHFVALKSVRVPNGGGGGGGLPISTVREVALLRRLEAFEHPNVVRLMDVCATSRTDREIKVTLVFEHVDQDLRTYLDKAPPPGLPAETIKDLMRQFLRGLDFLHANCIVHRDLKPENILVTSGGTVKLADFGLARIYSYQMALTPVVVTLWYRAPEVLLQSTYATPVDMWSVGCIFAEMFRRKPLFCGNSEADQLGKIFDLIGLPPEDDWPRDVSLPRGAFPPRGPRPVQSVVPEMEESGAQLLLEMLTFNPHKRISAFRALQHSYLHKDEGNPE
# T3 sequence (P24385 whole entry partner): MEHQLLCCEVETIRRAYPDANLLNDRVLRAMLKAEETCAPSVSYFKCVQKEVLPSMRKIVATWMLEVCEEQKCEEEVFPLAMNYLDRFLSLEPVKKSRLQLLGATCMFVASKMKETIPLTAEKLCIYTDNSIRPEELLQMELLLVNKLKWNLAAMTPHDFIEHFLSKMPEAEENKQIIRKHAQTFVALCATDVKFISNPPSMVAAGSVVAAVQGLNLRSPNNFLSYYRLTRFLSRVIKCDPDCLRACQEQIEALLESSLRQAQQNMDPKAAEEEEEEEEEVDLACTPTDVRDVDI
# Experimental: as §1, §2
# CDK1/CyclinB1 = target: T4, CDK1/CyclinB1 (Homo sapiens, UniProt P06493); assay: Lance Ultra KinaSelect Assay, CDK1; type: biochemical; conditions: ATP 20 μM, read-out: Inhibition (IC50) CDK1
# T4 construct: purchased Carna
# T4 sequence (P06493 whole entry): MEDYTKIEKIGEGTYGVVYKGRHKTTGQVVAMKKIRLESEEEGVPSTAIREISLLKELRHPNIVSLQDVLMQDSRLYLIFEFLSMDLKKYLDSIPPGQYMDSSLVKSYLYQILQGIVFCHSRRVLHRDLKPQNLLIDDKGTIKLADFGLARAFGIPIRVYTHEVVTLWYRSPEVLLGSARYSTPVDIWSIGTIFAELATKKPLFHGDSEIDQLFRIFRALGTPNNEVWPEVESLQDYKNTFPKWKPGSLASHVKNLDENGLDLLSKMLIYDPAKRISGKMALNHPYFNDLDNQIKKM
# T4 sequence (P14635 whole entry partner): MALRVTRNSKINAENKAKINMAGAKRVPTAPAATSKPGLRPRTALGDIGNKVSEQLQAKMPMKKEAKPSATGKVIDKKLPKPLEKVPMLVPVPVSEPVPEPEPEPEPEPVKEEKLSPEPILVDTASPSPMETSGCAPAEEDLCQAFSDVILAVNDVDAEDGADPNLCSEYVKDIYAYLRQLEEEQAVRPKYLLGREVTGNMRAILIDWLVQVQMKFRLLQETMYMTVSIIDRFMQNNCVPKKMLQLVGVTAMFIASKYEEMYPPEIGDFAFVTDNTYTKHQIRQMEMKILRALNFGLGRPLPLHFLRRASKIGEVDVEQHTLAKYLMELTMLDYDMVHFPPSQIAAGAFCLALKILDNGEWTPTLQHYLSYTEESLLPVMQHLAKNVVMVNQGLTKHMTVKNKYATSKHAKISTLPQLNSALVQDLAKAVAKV
# Experimental: as §1, §2
# CDK2/CyclinA [2] = target: T1, CDK2/CyclinA; assay: LanthaScreen Eu Kinase Binding Assay, CDK2; conditions: tracer 236, read-out: Affinity (Kd) CDK2
# How it was run: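 TR-FRET competition binding with Alexa Fluor 647 tracer and Eu-anti-GST antibody; e.g. CDK2/Cyclin A 15 nM with tracer 236 60 nM (working solutions). Kinase buffer: HEPES 20 mM pH 8.0, MgCl2 10 mM, DTT 1 mM, Brij-35 0.01%; 8-point 1:3 series, 1 h at room temperature; Kd from sigmoidal dose-response curves.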
SMILES,IC50 (CDK2/CyclinA [1]),IC50 (CDK9),IC50 (CDK4/CyclinD1),IC50 (CDK1/CyclinB1),Kd (CDK2/CyclinA [2])
"CCCS(=O)(=O)Nc1cccc(Nc2ncnc(-c3ccccc3OC)n2)c1 [Compound L1, N-[3-((4-(2-Methoxyphenyl)-1,3,5-triazin-2-yl)amino)phenyl]-propanesulfonamide]",> 10000 nM,111 nM,> 10000 nM,> 10000 nM,–
"COc1ccccc1-c1ncnc(Nc2cccc(CS(N)(=O)=O)c2)n1 [B1′, 3-[(4-(2-Methoxyphenyl)-1,3,5-triazin-2-yl)amino]benzenemethanesulfonamide trifluoroacetic acid salt]",3080 nM,96.5 nM,> 10000 nM,12000 nM,798 nM
"NS(=O)(=O)Cc1cccc(Nc2ncnc(-c3ccccc3OCc3ccccc3)n2)c1 [Compound B13, 3-[(4-(2-Benzyloxyphenyl)-1,3,5-triazin-2-yl)amino]benzenemethanesulfonamide]",–,–,–,–,687 nM
"COc1cc(Cl)ccc1-c1ncnc(Nc2cccc(CS(N)(=O)=O)c2)n1 [Compound B6, 3-[(4-(4-Chloro-2-methoxyphenyl)-1,3,5-triazin-2-yl)amino]benzenemethanesulfonamide]",> 10000 nM,16.2 nM,> 10000 nM,> 10000 nM,–
"CCOc1ccccc1-c1ncnc(Nc2cccc(CS(N)(=O)=O)c2)n1 [Compound B12, 3-[(4-(2-Ethoxyphenyl)-1,3,5-triazin-2-yl)amino]benzenemethanesulfonamide]",2930 nM,102 nM,> 10000 nM,11500 nM,2350 nM
"COc1ccccc1-c1ncnc(Nc2cccc(S(N)(=O)=O)c2)n1 [C1′, 3-[(4-(2-Methoxyphenyl)-1,3,5-triazin-2-yl)amino]benzenesulfonamide trifluoroacetic acid salt]",781 nM,20.7 nM,1510 nM,1350 nM,220 nM
"COc1ccccc1-c1ncnc(Nc2ccccc2)n1 [Compound P1, 4-(2-Methoxyphenyl)-N-phenyl-1,3,5-triazine-2-amine]",–,937 nM,–,–,709 nM
"COc1ccccc1-c1ncnc(Nc2cccc([N+](=O)[O-])c2)n1 [Compound H1, 4-(2-Methoxyphenyl)-N-(3-nitrophenyl)-1,3,5-triazine-2-amine]",–,194 nM,–,–,68 nM
"COc1ccccc1-c1ncnc(Nc2cccc(CCS(N)(=O)=O)c2)n1 [Compound D1, 2-[3-((4-(2-Methoxyphenyl)-1,3,5-triazin-2-yl)amino)phenyl]ethanesulfonamide]",515 nM,139 nM,9320 nM,2580 nM,310 nM
"COc1ccccc1-c1ncnc(Nc2cccc(NS(C)(=O)=O)c2)n1 [Compound K1, N-[3-((4-(2-Methoxyphenyl)-1,3,5-triazin-2-yl)amino)phenyl]-methanesulfonamide]",826 nM,72 nM,> 10000 nM,> 10000 nM,283 nM
"COc1cccc(F)c1-c1ncnc(Nc2cccc(CS(N)(=O)=O)c2)n1 [Compound B4, 3-[(4-(6-Fluoro-2-methoxyphenyl)-1,3,5-triazin-2-yl)amino]benzenemethanesulfonamide]",1440 nM,201 nM,> 10000 nM,5680 nM,704 nM
"COc1ccc(F)cc1-c1ncnc(Nc2cccc(CS(N)(=O)=O)c2)n1 [Compound B3, 3-[(4-(5-Fluoro-2-methoxyphenyl)-1,3,5-triazin-2-yl)amino]benzenemethanesulfonamide]",–,–,–,–,375 nM

# More lines, now with the values ahead:
IC50 (CDK2/CyclinA [1]),IC50 (CDK9),IC50 (CDK4/CyclinD1),IC50 (CDK1/CyclinB1),Kd (CDK2/CyclinA [2]),SMILES
–,9 nM,–,–,3450 nM,"NS(=O)(=O)Cc1cccc(Nc2ncnc(-c3ccccc3Oc3ccccc3)n2)c1 [Compound B14, 1-(3-{[4-(2-phenoxyphenyl)-1,3,5-triazin-2-yl]amino}phenyl)methanesulfonamide]"
–,10.4 nM,–,–,207 nM,"COc1cc(F)ccc1-c1ncnc(Nc2cccc(CS(N)(=O)=O)c2)n1 [B2′, 1-(3-{[4-(4-fluoro-2-methoxyphenyl)-1,3,5-triazin-2-yl]amino}phenyl)methanesulfonamide hydrochloride]"
1770 nM,5.7 nM,681 nM,3400 nM,88 nM,"NS(=O)(=O)Cc1cccc(Nc2ncnc(-c3ccccc3OCc3ccccc3)n2)c1 [B13′, 3-[(4-(2-Benzyloxyphenyl)-1,3,5-triazin-2-yl)amino]benzenemethanesulfonamide trifluoroacetic acid salt]"
423 nM,12.8 nM,> 10000 nM,> 10000 nM,< 5 nM,"COc1cc(F)ccc1-c1ncnc(Nc2cccc(CCS(N)(=O)=O)c2)n1 [Compound D2, 2-[3-((4-(4-Fluoro-2-methoxyphenyl)-1,3,5-triazin-2-yl)amino)phenyl]ethanesulfonamide]"
1070 nM,9 nM,> 10000 nM,6770 nM,1690 nM,"NS(=O)(=O)Cc1cccc(Nc2ncnc(-c3ccccc3OCc3ccncc3)n2)c1 [Compound B16, 3-[(4-(2-((4-Pyridinyl)methoxy)phenyl)-1,3,5-triazin-2-yl)amino]benzenemethanesulfonamide]"
568 nM,11.6 nM,3210 nM,899 nM,–,"COc1cc(F)ccc1-c1ncnc(Nc2cccc(CS(N)(=O)=O)c2)n1 [B2″, 1-(3-{[4-(4-fluoro-2-methoxyphenyl)-1,3,5-triazin-2-yl]amino}phenyl)methanesulfonamide trifluoroacetic acid salt]"
–,10.6 nM,–,–,–,"COc1cc(F)ccc1-c1ncnc(Nc2cccc(CS(N)(=O)=O)c2)n1 [Compound B2, 3-[(4-(4-Fluoro-2-methoxyphenyl)-1,3,5-triazin-2-yl)amino]benzenemethanesulfonamide]"
